Assay results from US20240101568A1, “NOVEL BENZAZEPINE SPIRO DERIVATIVE” (SHANGHAI JEMINCARE PHARMACEUTICAL CO., LTD, priority 2020, published 2024).
Read-outs that look alike come from different tables or passages of the source.

Key:
[1] = system: LLC-PK1 cells; experiment: Compound proliferation inhibition assay on LLC-PK1 cells (vasopressin-induced proliferation); type: cell-based, Porcine; conditions: AVP 10 nM, verapamil 5 μM, 48 hr, FIG. 1
Description: Experimental Example 3: Compound Proliferation Inhibition Assay on LLC-PK1 Cells
(1) Cell • Porcine kidney epithelial cells LLC-PK1: purchased from ATCC, Cat #CL-101
(2) Reagents: • Medium 199, Gibco (Cat #11150059) • Fetal Bovine Serum (FBS), Australia, Jitai (Cat #FND500) • Trypsin-EDTA (0.25%), phenol red, Gibco (Cat #25200072) • PBS, pH 7.4, Gibco (Cat #10010031) • DMSO (Dimethyl Sulfoxide), Sigma (Cat #D8418) • Poly-D-lysine, Gibco (Cat #A3890401) • Vasopressin AVP: Ji'er Biochemical Co. Ltd. Customization • Verapamil hydrochloride, MCE (Cat #HY-A0064) • AlamarBlue™ HS Cell Viability Reagent, Invitrogen (Cat #A50100) […]
LLC-PK1 cells were cultured in M199 medium supplemented with 10% fetal bovine serum at 37° C. with 5% CO2. […] LLC-PK1 cells were trypsinized, resuspended in serum-free M199 after centrifugation, counted, diluted to a cell suspension of 1×10^5/mL in serum-free M199 culture medium, and FBS was added to a final concentration of 1%. […] On the fifth day, the culture solution was carefully suctioned away, the cells were washed once with 200 μL PBS, 90 μL of M199 serum-free culture solution was carefully added, then 10 μL Alamarblue reagent was added, and the mixture was centrifuged at 300 rpm for 1 min, incubated at 37° C. for 2 h, and then detected. […]
Data quality control: S/B, i.e., Max well average/Min well average, is calculated and […] is considered QC pass.

[2] = in vivo; design: species or system mice
Protocol: Experimental Example 2: In Vivo Pharmacokinetic Experiments with Compounds of the Disclosure
This study evaluated in vivo pharmacokinetics in mice by intravenous and oral administration.
Experimental methods and conditions: male CD1 mice, aged 6-8 weeks, had free access to drinking water and were given a single intravenous injection of test compound 1 mg/Kg (vehicle 5% DMSO/10% Solutol/85% Saline), 5 min, 15 min, 30 min, 1 hr, 2 hr, 4 hr, 8 hr, 24 hr or oral gavage administration of 10 mg/kg (vehicle 5% DMSO/10% Solutol/85% Saline) after administration. Orbital blood was collected at 15 min, 30 min, 1 hr, 2 hr, 4 hr, 6 hr, 8 hr, and 24 hr after administration. No less than 50 μL of each sample was collected. Heparin sodium was used for anticoagulation. After collection, the sample was placed on ice, and the plasma was separated and tested within 1 hour. Plasma concentrations were determined by liquid-phase tandem mass spectrometry (LC/MS/MS). Pharmacokinetic parameters were calculated using Phoenix WinNonlin software. The results are shown in Tables 2 and 3 with Tofapriptan as control 1.

[3] = biological target: T1, human vasopressin receptor V2R (Homo sapiens, UniProt P30518); experiment: IC50 assay for inhibition of vasopressin-induced V2R activation (cAMP increase, HTRF) in HeLa-V2R cells; type: cell-based
T1 construct: host or cells: HeLa (lentivirus infection, puromycin selection)
T1 sequence (P30518 whole entry): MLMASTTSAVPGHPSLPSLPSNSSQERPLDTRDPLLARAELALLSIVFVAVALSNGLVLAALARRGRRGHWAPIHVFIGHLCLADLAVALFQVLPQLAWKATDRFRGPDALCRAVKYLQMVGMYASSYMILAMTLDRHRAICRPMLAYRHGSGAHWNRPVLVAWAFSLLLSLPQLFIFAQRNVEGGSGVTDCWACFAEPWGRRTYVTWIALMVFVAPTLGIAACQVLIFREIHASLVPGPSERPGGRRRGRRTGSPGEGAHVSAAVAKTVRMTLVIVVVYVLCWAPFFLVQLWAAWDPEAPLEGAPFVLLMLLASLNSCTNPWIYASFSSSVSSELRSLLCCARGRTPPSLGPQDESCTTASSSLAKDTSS
Description: Experimental Example 1: IC50 Assay for Inhibition of Vasopressin-Induced Vasopressin Receptor V2R Activation by Compounds
Hela cell line stably expressing the human vasopressin receptor V2R (HeLa-V2R): it was constructed by Shanghai Jikai Gene Chemical Technology Co. Ltd. using lentivirus infection method and stably expressed human V2R as verified by qPCR.
DMEM cell culture medium: brand: Gibco, code: 11995065; fetal bovine serum: brand: Jitai, article No: FND500; 0.25% Trypsin: brand: Cibco, code: 25200072; Puromycin Dihydrochloride: brand: Gibco, code: A1113803; cAMP-GS HIRANGE KIT: brand: Cisbio, code: 62AM6PEC; IBMX: brand: Sigma, code: i5879; vasopressin AVP: Ji'er Biochemical (Shanghai) Co. Ltd.
Hela-V2R cells were cultured in a DMEM medium supplemented with 10% fetal bovine serum at 37° C. with 5% CO2 and continuously selected for V2R-expressing cells by adding 2 μg/mL puromycin. On the day of the experiment, cells were trypsinized, washed twice with stimulation buffer from the cAMP-GS HIRANGE kit, resuspended, and counted to 1.6×10^6 cells/ml, and IBMX was added to a final concentration of 0.5 mM. 5 μL of cell suspension/well was transferred to a 384-well plate and 2.5 μL of test compound or DMSO (minimum Min, maximum Max control) was added at various concentrations (10 μM in a 3-fold dilution, 10 concentration gradients) to the corresponding wells. After 30 minutes of incubation at room temperature, 2.5 μL vasopressin AVP solution was added to a final concentration of 2.25 nM to the test compound wells and 2.5 μL stimulation buffer to the minimum wells and incubated for 60 minutes at 25 C. Simultaneously cAMP standard sample (3-fold dilution from 5.6 μM, 10 concentration points) was prepared, and 10 μL of cAMP standard sample was transferred to corresponding well of a 384-well plate. The cAMP-d2 fluorescence and anti-cAMP antibody probes provided in the kit were diluted 20-fold with lysis buffer in the cAMP-GS HIRANGE kit, 5 μL of each was taken and added into each well of the 384-well plate in turn, mixed well with simple centrifugation performed, and incubated at 25° C. for 2 hours and then detect. Sample detection: fluorescence intensity was measured at 615 nm and 665 nm using the HTRF method in the Envision plate reader. Two duplicate wells were made for each sample to be tested, and 32 duplicate wells were made for Min and Max respectively.
The fluorescence intensity ratio FI665/615 at the wavelengths of 665 nm and 615 nm was calculated for each well sample. The standard curve was obtained by fitting the “log(inhibitor) vs response−variable slope (four parameters)” model in Prism 8.0 software with the logarithm of standard concentration as X and FI665/615X1000 as Y value. With the test well F1665/615X1000 as a Y value, the cAMP concentration corresponding to each sample was calculated according to the above standard curve in Prism 8.0 software.
The % Inhibition (inhibition percentage) was calculated as follows:
% inhibition=(Cmax−Ccmpd)/(Cmax−Cmm)×100
Where Cmax is the average calculated cAMP concentration in all maximum wells; Cmm is the average calculated cAMP concentration in all […]; Ccmpd is the calculated cAMP concentration of the test compound.
IC50s were calculated by non-linear regression using the “log(inhibitor) vs response−variable slope (four parameters)” model in Prism 8.0 software with % Inhibition (inhibition percentage) as Y value and log value of compound concentration as X, where Y=Bottom+(Top−Bottom)/(1+10^((Log IC50−X)*Hill Slope)).

[4] = Human V2R Hela-Stable cell line OE2, AVP 2.25 nM, read-out: IC50 (nM), inhibition of the cAMP increase

## O=C(Nc1ccc(C(=O)N2CCC(F)(F)C3(CN3)c3cc(Cl)ccc32)cn1)c1ccccc1C(F)(F)F (centres unmarked) [Compound 1]
[1]; compared with control 1
  inhibitory effect on the proliferation of LLC-PK1 cells: stronger than that of control 1
[1]
  pro-proliferation effect on LLC-PK1 cells: no pro-proliferation effect
[2]; male, CD1, mouse, iv, 1 mg/kg
  AUC0-inf: 719 ng·h/mL
  clearance: 23.2 mL/min/kg
  half-life: 55.2 min
[2]; male, CD1, mouse, po, 10 mg/kg
  AUC0-inf: 4060 ng·h/mL
  Cmax: 1260 ng/mL
  bioavailability: 56%
  half-life: 36 min
[3]
  IC50: 10.9 nM

## Cc1ccccc1C(=O)Nc1ccc(C(=O)N2CCC(F)(F)C3(CN3)c3cc(Cl)ccc32)c(C)c1 (centres unmarked) [Compound 2]
[3]; [4]
  IC50: 9.35 nM

## Cc1ccccc1C(=O)Nc1ccc(C(=O)N2CCCC3(CN3)c3cc(Cl)ccc32)cn1 (centres unmarked) [Compound 4]
[3]; [4]
  IC50: 3.14 nM

## O=C(Nc1ccc(C(=O)N2CCCC3(CN3)c3cc(Cl)ccc32)cn1)c1ccccc1C(F)(F)F (centres unmarked) [Compound 5]
[3]; [4]
  IC50: 4.67 nM

## Cc1cc(NC(=O)c2ccccc2Cl)ccc1C(=O)N1CCCC2(CN2)c2cc(Cl)ccc21 (centres unmarked) [Compound 8]
[3]; [4]
  IC50: 5.01 nM

## Cc1ccccc1C(=O)Nc1ccc(C(=O)N2CCCC3(CN3)c3cc(Cl)ccc32)c(C)c1 (centres unmarked) [Compound 9]
[3]; [4]
  IC50: 4.88 nM

## Cc1ccccc1C(=O)Nc1ccc(C(=O)N2CCCC3(CC3)c3cc(Cl)ccc32)c(C)c1 [Compound 16]
[3]; [4]
  IC50: 11.2 nM

## Cc1ccccc1C(=O)Nc1ccc(C(=O)N2CCCC3(CCC3)c3cc(Cl)ccc32)c(C)c1 [Compound 17]
[3]; [4]
  IC50: 10.4 nM

## Cc1ccccc1C(=O)Nc1ccc(C(=O)N2CCC(F)(F)C3(CN3)c3cc(Cl)ccc32)cn1 (centres unmarked) [Compound 20]
[3]; [4]
  IC50: 5.54 nM

## O=C(Nc1ccc(C(=O)N2CCC(F)(F)C3(CN3)c3cc(Cl)ccc32)cn1)c1ccccc1Cl (centres unmarked) [Compound 21]
[3]; [4]
  IC50: 4.51 nM

## Cc1ccccc1C(=O)Nc1ccc(C(=O)N2CCCC(O)c3cc(Cl)ccc32)c(C)c1 (centres unmarked) [Control 1, Tofapriptan, reference compound]
[2]; mouse, iv, 1 mg/kg
  AUC0-inf: 367 ng·h/mL
  Cl: 45.5 mL/min/kg
  T1/2: 31.8 min
[2]; mouse, po, 10 mg/kg
  AUC0-inf: 1613 ng·h/mL
  Cmax: 1307 ng/mL
  F (%): 44%
  T1/2: 94.8 min
